In patent US20140249147A1, “Substituted Bicyclic Aza-Heterocycles and Analogues as Sirtuin Modulators” (GlaxoSmithKline, LLC, priority 2011, published 2014):

Columns and labels:
[1] = target: T1, SIRT1 (Homo sapiens, UniProt Q96EB6); experiment: Trp mass spectrometry assay of SIRT1 activation; format: biochemical; conditions: Trp peptide substrate; for TYP EC1.5 (μM): concentration giving 150% activation of SIRT1; for TYP % Fold Act: percent maximum fold activation relative to control (100%)
T1 sequence (Q96EB6 1-747): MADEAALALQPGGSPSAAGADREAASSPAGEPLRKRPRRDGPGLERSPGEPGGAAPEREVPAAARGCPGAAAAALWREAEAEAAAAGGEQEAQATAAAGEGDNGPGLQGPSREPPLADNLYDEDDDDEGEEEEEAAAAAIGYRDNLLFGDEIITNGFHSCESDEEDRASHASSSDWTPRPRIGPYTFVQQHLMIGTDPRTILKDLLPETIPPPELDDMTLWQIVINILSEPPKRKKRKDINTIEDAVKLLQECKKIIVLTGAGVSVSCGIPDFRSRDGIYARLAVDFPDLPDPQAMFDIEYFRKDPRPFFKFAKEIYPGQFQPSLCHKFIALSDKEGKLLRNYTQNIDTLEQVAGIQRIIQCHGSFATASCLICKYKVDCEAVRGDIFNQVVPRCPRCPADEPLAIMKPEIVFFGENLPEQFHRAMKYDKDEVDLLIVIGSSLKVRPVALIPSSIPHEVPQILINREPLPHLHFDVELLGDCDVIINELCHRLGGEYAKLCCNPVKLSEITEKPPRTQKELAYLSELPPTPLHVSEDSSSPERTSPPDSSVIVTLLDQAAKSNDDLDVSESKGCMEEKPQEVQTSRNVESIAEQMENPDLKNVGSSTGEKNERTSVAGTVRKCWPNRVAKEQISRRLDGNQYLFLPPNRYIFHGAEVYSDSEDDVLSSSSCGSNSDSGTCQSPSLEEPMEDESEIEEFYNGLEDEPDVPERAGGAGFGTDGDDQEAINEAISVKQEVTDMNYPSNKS
Source text: (§1) Mass spectrometry based assays were used to identify modulators of SIRT1 activity. The TAMRA based assay utilized a peptide having 20 amino acid residues as follows: Ac-EE-K(biotin)-GQSTSSHSK(Ac)NleSTEG-K(5TMR)-EE-NH2 (SEQ ID NO: 1), wherein K(Ac) is an acetylated lysine residue and Nle is a norleucine. The peptide was labeled with the fluorophore 5TMR (excitation 540 nm/emission 580 nm) at the C-terminus. The sequence of the peptide substrate was based on p53 with several modifications. In addition, the methionine residue naturally present in the sequence was replaced with the norleucine because the methionine may be susceptible to oxidation during synthesis and purification. The Trp based assay utilized a peptide having an amino acid residues as follows: Ac—R—H—K—K(Ac)—W—NH2 (SEQ ID NO: 2).
The Trp mass spectrometry assay was conducted as follows. 0.5 μM peptide substrate and 120 μM βNAD^+ were incubated with 10 nM SIRT1 for 25 minutes at 25° C. in a reaction buffer (50 mM HEPES pH 7.5, […], 1 mM DTT, 0.05% BSA). The SIRT1 protein was obtained by cloning the SirT 1 gene into a T7-promoter containing vector, which was then expressed in BL21(DE3) bacterial cells and purified as described in further detail below. Test compound was added at varying concentrations to this reaction mixture and the resulting reactions were monitored. After the 25 minute incubation with SIRT1, 10 μL of 10% formic acid was added to stop the reaction. The resulting reactions were sealed and frozen for later mass spec analysis. The relative SIRT1 activity was then determined by measuring the amount of O-acetyl-ADP-ribose (OAADPR) formed (or, alternatively, the amount of deacetylated Trp peptide generated) by the NAD-dependent sirtuin deacetylation reaction in the presence of varying concentrations of the test compound versus control reactions lacking the test compound. The degree to which the test agent activated deacetylation by SIRT1 was expressed as EC1.5 (i.e., the concentration of compound required to increase SIRT1 activity by 50% over the control lacking test compound), and Percent Maximum Activation (i.e., the maximum activity relative to control (100%) obtained for the test compound).
(§2) A control for inhibition of sirtuin activity was conducted by adding 1 μL of 500 mM nicotinamide as a negative control at the start of the reaction (e.g., permits determination of maximum sirtuin inhibition). A control for activation of sirtuin activity was conducted using 10 nM of sirtuin protein, with 1 μL of DMSO in place of compound, to determine the amount of deacetylation of the substrate at a given time point within the linear range of the assay. This time point was the same as that used for test compounds and, within the linear range, the endpoint represents a change in velocity. For the above assay, SIRT1 protein was expressed and purified as follows. The SirT1 gene was cloned into a T7-promoter containing vector and transformed into BL21(DE3). The protein was expressed by induction with 1 mM IPTG as an N-terminal His-tag fusion protein at 18° C. overnight and harvested at 30,000×g. Cells were lysed with lysozyme in lysis buffer (50 mM Tris-HCl, 2 mM Tris[2-carboxyethyl]phosphine (TCEP), 10 μM ZnCl2, 200 mM NaCl) and further treated with sonication for 10 min for complete lysis. The protein was purified over a Ni-NTA column (Amersham) and fractions containing pure protein were pooled, concentrated and run over a sizing column (Sephadex S200 26/60 global). The peak containing soluble protein was collected and run on an Ion-exchange column (MonoQ). Gradient elution (200 mM-500 mM NaCl) yielded pure protein. This protein was concentrated and dialyzed against dialysis buffer (20 mM Tris-HCl, 2 mM TCEP) overnight. The protein was aliquoted and frozen at −80° C. until further use.
Sirtuin-modulating compounds of Formula (I) that activated SIRT1 were identified using the assay described above and are shown below in Table 1. […]

[2] = target: T1, SIRT1; experiment: TAMRA based mass spectrometry assay of SIRT1 activation; format: biochemical; conditions: TAMRA peptide substrate; for Emax: 25 min, percent maximum fold activation relative to control (100%), read-out: TAMRA % Fold Act; for TAMRA EC1.5 (μM): concentration giving 150% activation of SIRT1
Source text: as §1
The TAMRA based mass spectrometry assay was conducted as follows: 0.5 μM peptide substrate and 120 μM βNAD^+ was incubated with 10 nM SIRT1 for 25 minutes at 25° C. in a reaction buffer (50 mM Tris-acetate pH 8, 137 mM NaCl, 2.7 mM KCl, 1 mM MgCl2, 5 mM DTT, 0.05% BSA). The SIRT1 protein was obtained by cloning the SirT1 gene into a T7-promoter containing vector, which was then transformed and expressed in BL21(DE3) bacterial cells. Test compound was added at varying concentrations to this reaction mixture and the resulting reactions were monitored. After the 25 minute incubation with SIRT1, 10 μL of 10% formic acid was added to stop the reaction. The resulting reactions were sealed and frozen for later mass spec analysis. Determination of the amount of deacetylated substrate peptide formed (or, alternatively, the amount of O-acetyl-ADP-ribose (OAADPR) generated) by the sirtuin-mediated NAD-dependent deacetylation reaction allowed for the precise measurement of relative SIRT1 activity in the presence of varying concentrations of the test compound versus control reactions lacking the test compound.
as §2
Sirtuin-modulating compounds of Formula (I) that activated SIRT1 were identified using the assay described above and are shown below in Table 1. The EC1.5 values represent the concentration of test compounds that result in 150% activation of SIRT1. The EC1.5 values for the activating compounds of Formula (I) are represented by A (EC1.5<1 μM), B (EC1.5 1-25 μM), C (EC1.5>25 μM). […]

Compound: O=C(Nc1nccs1)c1ccc2nnc(-c3cccc(OC(F)(F)F)c3)n2n1 [Compound 1, N-(thiazol-2-yl)-3-(3-(trifluoromethoxy)phenyl)-[1,2,4]triazolo[4,3-b]pyridazine-6-carboxamide]
- TYP EC1.5 (μM) [1]: B (EC1.5 1-25 μM)
- TYP % Fold Act [1]: B (Fold Activation <350%)
- Emax [2]: < 350%
- TAMRA EC1.5 (μM) [2]: C (EC1.5>25 μM)

Compound: O=C(Nc1ccccn1)c1ccc2nnc(-c3cccc(N4CCOCC4)c3)n2n1 [Compound 4]
- TYP EC1.5 (μM) [1]: C (EC1.5>25 μM)
- TYP % Fold Act [1]: B (Fold Activation <350%)
- Emax [2]: < 350%
- TAMRA EC1.5 (μM) [2]: C (EC1.5>25 μM)

Compound: O=C(Nc1nccs1)c1ccc2nnc(-c3cccc(N4CCOCC4)c3)n2n1 [Compound 5, 3-(3-morpholinophenyl)-N-(thiazol-2-yl)-[1,2,4]triazolo[4,3-b]pyridazine-6-carboxamide]
- TYP EC1.5 (μM) [1]: C (EC1.5>25 μM)
- TYP % Fold Act [1]: B (Fold Activation <350%)
- Emax [2]: < 350%
- TAMRA EC1.5 (μM) [2]: C (EC1.5>25 μM)

Compound: O=C(Nc1cccc(C(F)(F)F)n1)c1ccc2nnc(-c3cccc(Cl)c3)n2n1 [Compound 6]
- TYP % Fold Act [1]: B (Fold Activation <350%)
- Emax [2]: < 350%

Compound: Cc1cc(C)nc(NC(=O)c2ccc3nnc(-c4cccc(C(F)(F)F)c4)n3n2)c1 [Compound 8]
- TYP % Fold Act [1]: B (Fold Activation <350%)
- Emax [2]: < 350%

Compound: O=C(Nc1ccc2ncc(-c3cccc(C(F)(F)F)c3)n2n1)c1cnccn1 [Compound 14]
- TYP EC1.5 (μM) [1]: C (EC1.5>25 μM)
- TYP % Fold Act [1]: B (Fold Activation <350%)
- Emax [2]: < 350%
- TAMRA EC1.5 (μM) [2]: C (EC1.5>25 μM)

Compound: O=C(Nc1ccc2ncc(-c3ccccc3Cl)n2n1)c1cnccn1 [Compound 15]
- TYP EC1.5 (μM) [1]: C (EC1.5>25 μM)
- TYP % Fold Act [1]: B (Fold Activation <350%)
- Emax [2]: < 350%
- TAMRA EC1.5 (μM) [2]: C (EC1.5>25 μM)

Compound: O=C(Nc1ccc2ncc(-c3cccc(F)c3)n2n1)c1ncccn1 [Compound 16]
- TYP EC1.5 (μM) [1]: C (EC1.5>25 μM)
- TYP % Fold Act [1]: B (Fold Activation <350%)
- Emax [2]: < 350%
- TAMRA EC1.5 (μM) [2]: C (EC1.5>25 μM)

Compound: O=C(Nc1ccc2ncc(-c3cccc(C(F)(F)F)c3)n2n1)c1nccs1 [Compound 18]
- TYP EC1.5 (μM) [1]: C (EC1.5>25 μM)
- TYP % Fold Act [1]: B (Fold Activation <350%)
- Emax [2]: < 350%
- TAMRA EC1.5 (μM) [2]: C (EC1.5>25 μM)

Compound: O=C(Nc1ccnc(C(F)(F)F)c1)c1ccc2ncc(-c3cccc(Cl)c3)n2n1 [Compound 19]
- TYP EC1.5 (μM) [1]: C (EC1.5>25 μM)
- TYP % Fold Act [1]: B (Fold Activation <350%)
- Emax [2]: < 350%
- TAMRA EC1.5 (μM) [2]: B (EC1.5 1-25 μM)

Compound: O=C(Nc1cccc(C(F)(F)F)n1)c1ccc2ncc(-c3ccccc3Cl)n2n1 [Compound 21]
- TYP EC1.5 (μM) [1]: C (EC1.5>25 μM)
- TYP % Fold Act [1]: B (Fold Activation <350%)
- Emax [2]: < 350%
- TAMRA EC1.5 (μM) [2]: C (EC1.5>25 μM)

Compound: O=C(Nc1ccc2ncc(-c3ccccc3F)n2n1)c1nccs1 [Compound 22]
- TYP EC1.5 (μM) [1]: C (EC1.5>25 μM)
- TYP % Fold Act [1]: B (Fold Activation <350%)
- Emax [2]: < 350%
- TAMRA EC1.5 (μM) [2]: C (EC1.5>25 μM)

Compound: O=C(Nc1ccc2ncc(-c3ccccc3F)n2n1)c1ccccn1 [Compound 23]
- TYP EC1.5 (μM) [1]: C (EC1.5>25 μM)
- TYP % Fold Act [1]: B (Fold Activation <350%)
- Emax [2]: < 350%
- TAMRA EC1.5 (μM) [2]: C (EC1.5>25 μM)

Compound: O=C(Nc1cccc(N2CCOCC2)n1)c1ccc2ncc(-c3cccc(F)c3)n2n1 [Compound 38]
- TYP EC1.5 (μM) [1]: C (EC1.5>25 μM)
- TYP % Fold Act [1]: B (Fold Activation <350%)
- Emax [2]: < 350%
- TAMRA EC1.5 (μM) [2]: C (EC1.5>25 μM)

Compound: O=C(Nc1cccc(N2CCOCC2)n1)c1ccc2ncc(-c3ccccc3Cl)n2n1 [Compound 44]
- TYP EC1.5 (μM) [1]: C (EC1.5>25 μM)
- TYP % Fold Act [1]: B (Fold Activation <350%)
- Emax [2]: < 350%
- TAMRA EC1.5 (μM) [2]: C (EC1.5>25 μM)

Compound: O=C(Nc1cccc(N2CCOCC2)n1)c1ccc2ncc(-c3cccc(C(F)(F)F)c3)n2n1 [Compound 48]
- TYP EC1.5 (μM) [1]: A (EC1.5<1 μM)
- TYP % Fold Act [1]: B (Fold Activation <350%)
- Emax [2]: ≥ 350%
- TAMRA EC1.5 (μM) [2]: A (EC1.5<1 μM)
